“Also recorded” adds a separate entry of the source. Structures can show the parent of a compound that is named as a salt.
Legend:
Type in all cases: cell-based
[1] = test system: colorectal cancer cells (HCT-116); assay: MTT assay, colorectal cancer cells (HCT-116); details: HCT-116, 0.625 μM to 10 µM, 24 hours
Protocol: (§1) Cell proliferation was evaluated through MTT analysis. SJCRH30 and CCD-18Co cells were seeded in triplicate in 96-well plates at a density of 2×10^4 cells per well. After 24 hours, each FDA-approved drug was diluted in fetal bovine serum (FBS)-free medium and the cells were treated therewith. After 24 hours of incubation, the medium was replaced with MTT solution (0.5 mg/mL) and the plates were incubated at 37° C. under 5% CO2. After 60 minutes of incubation, the supernatants were removed and 50 μL of DMSO was added to each well. The optical density in each well was measured at 570 nm using a microplate reader (VersaMax, Molecular Devices, USA).
(§2) MTT assay was performed by treating colorectal cancer cells (HCT-116), pancreatic cancer cells (PANC-1), lung cancer cells (A549), and breast cancer cells (MDA-MB-231) with each of ivacaftor and adapalene and treating colorectal cancer cells (HCT-116), pancreatic cancer cells (PANC-1), and lung cancer cells (A549) with dutasteride. The cells were treated with each of the three drugs at concentrations of 0.625 μM, 1.25 μM, 2.5 μM, 5 μM, and 10 µM for 24 hours and then observed.

[2] = test system: SJCRH30 human alveolar rhabdomyosarcoma cells; assay: MTT assay, proliferation of rhabdomyosarcoma cells (SJCRH30); details: for cell proliferation (MTT): SJCRH30, 5 μM and 10 μM; for cell killing effect (MTT): SJCRH30, 10 μM; for IC50: Homo sapiens, Rhabdomyosarcoma cell, SJCRH30, 24 hours, MTT, read-out: IC50 (half maximal inhibitory concentration)
Protocol: (§3) SJCRH30 human alveolar rhabdomyosarcoma cells were purchased from ATCC. Cells were cultured in RPMI1640 supplemented with 10% fetal bovine serum (FBS), 1% penicillin, and streptomycin. CCD-18Co human colon fibroblasts were purchased from the Korea Cell Line Bank. Cells were cultured in DMEM supplemented with 10% fetal bovine serum (FBS), 1% penicillin, and streptomycin. All cells were cultured in an incubator at 37° C. under 5% CO2.
as §1
MTT assay was performed to evaluate the effects of FDA-approved drugs on the proliferation of rhabdomyosarcoma cells (SJCRH30). Rhabdomyosarcoma cells were treated with each of 18 drugs at concentrations of 5 μM and 10 μM, respectively, and observed after 24 hours.
(§4) Rhabdomyosarcoma cells (SJCRH30) and colon fibroblasts (CCD-18Co) were treated with ivacaftor at concentrations of 0.625 μM, 1.25 μM, 2.5 μM, 5 μM, and 10 µM and compared.
MTT assay was performed to compare IC50 (half maximal inhibitory concentration) values of pazopanib HCl, which is used for soft tissue sarcoma patients, and ivacaftor, against rhabdomyosarcoma cells (SJCRH30). Rhabdomyosarcoma cells were treated with each of pazopanib HCl and ivacaftor at concentrations of 0.625 μM, 1.25 μM, 2.5 μM, 5 μM, 10 µM, 20 μM, 40 μM, and 60 µM for 24 hours and then observed.

lung cancer cells (A549) = assay: MTT assay, lung cancer cells (A549); details: A549, 0.625 μM to 10 µM, 24 hours
Protocol: as §1, §2

[3] = test system: pancreatic cancer cells (PANC-1); assay: MTT assay, pancreatic cancer cells (PANC-1); details: PANC-1, 0.625 μM to 10 µM, 24 hours
Protocol: as §1, §2

[4] = test system: breast cancer cells (MDA-MB-231); assay: MTT assay, breast cancer cells (MDA-MB-231); details: MDA-MB-231, 0.625 μM to 10 µM, 24 hours
Protocol: as §1, §2

[5] = test system: CCD-18Co human colon fibroblasts; assay: MTT assay, toxicity to normal cells (CCD-18Co); details: 0.625 μM to 10 µM, all concentrations, 24 hours
Protocol: as §3, §1, §4

Row | IC50 [2] [µM] | Compound | cell proliferation (MTT) [1] | cell proliferation (MTT) ([2]; 24 hours) | cell killing effect (MTT) ([2]; 24 hours) | cell proliferation (MTT) (lung cancer cells (A549)) | cell proliferation (MTT) [3] | cell proliferation (MTT) [4] | cell number (MTT) ([2]; SJCRH30, at 1.25 μM, 2.5 μM, 5 μM and 10 μM, 24 hours) | cell number (MTT), toxicity to normal cells [5]
1 | – | C[C@]12C=CC(=O)N[C@@H]1CC[C@@H]1[C@@H]2CC[C@]2(C)[C@@H](C(=O)Nc3cc(C(F)(F)F)ccc3C(F)(F)F)CC[C@@H]12 [dutasteride] | decrease in cell proliferation | significant decrease in cell proliferation | significant cell killing effect | decrease in cell proliferation | decrease in cell proliferation | – | – | –
2 | – | COc1ccc(-c2ccc3cc(C(=O)O)ccc3c2)cc1C12CC3CC(CC(C3)C1)C2 [adapalene] | significant decrease in cell proliferation | significant decrease in cell proliferation | significant cell killing effect | significant decrease in cell proliferation | significant decrease in cell proliferation | significant decrease in cell proliferation | – | –
3 | 40.9 | Cc1ccc(Nc2nccc(N(C)c3ccc4c(C)n(C)nc4c3)n2)cc1S(N)(=O)=O [pazopanib HCl] | – | – | – | – | – | – | – | –
4 | – | C[C@@H](O[C@H]1OCCN(Cc2n[nH]c(=O)[nH]2)[C@H]1c1ccc(F)cc1)c1cc(C(F)(F)F)cc(C(F)(F)F)c1 [aprepitant] | – | significant decrease in cell proliferation | significant cell killing effect | – | – | – | – | –
5 | 5.11 | CC(C)(C)c1cc(C(C)(C)C)c(NC(=O)c2c[nH]c3ccccc3c2=O)cc1O [ivacaftor] | – | significant decrease in cell proliferation; also recorded: highest effect on cell proliferation reduction | significant cell killing effect | significant decrease in cell proliferation | significant decrease in cell proliferation | significant decrease in cell proliferation | significant decrease in the cell number | no significant decrease in the cell number

Reference: US20240316066A1, “COMPOSITION COMPRISING PIP4K2C INHIBITOR AS ACTIVE INGREDIENT FOR TREATMENT OF CANCER” (GWANGJU INSTITUTE OF SCIENCE AND TECHNOLOGY, priority 2021, published 2024)
